Assay [1] has as its system PC3. The experiment in a line: Cell viability, CellTiter-Glo assay, PC3. To be noted: Homo sapiens, PC-3, PC3, cell viability. The assay is classed as cell-based. How it is done: (§1) The viability of screened cancer cells was recorded using a luminescence-based CellTiter-Glo® assay for the ATP quantification. The screening concentration of the molecule ranged from 100/10 μM to 45/4.5 nM with an 8-point-3-fold dilution series in DMEM media (>0.1% DMSO as control). Each experiment was conducted in more than two biological replicates with three technical replicates. The error bar is a representation of standard deviation among the technical replicates.
(§2) The viability of screened cancer cells was recorded using a luminescence-based CellTiter-Glo® assay for the ATP quantification. The screening concentration of IITK3002 ranged from 10 μM to 4.5 nM with an 8-point-3-fold dilution series in DMEM media (>0.1% DMSO as control). Each experiment was conducted in more than two biological replicates with three technical replicates. The error bar is a representation of standard deviation among the technical replicates.
(§3) a. […] In parallel, we have also synthesized the bromoacetamide (IITK3002) version of the lead molecules which is slightly more reactive with thiol nucleophiles when compared to chlorooacetamide warheads as depicted in FIG. 13. […] In addition, we also evaluated the molecules' antiproliferative potency against a panel of twelve different cancer phenotypes. The set of cancer cell lines included liver, breast, colon, myeloma, bone, blood, skin, brain and prostate lineages (FIG. 2, 3, Table 1).
(In general: ATP-based viability assays read luminescence as a measure of living cells.)

The test system of assay [2] is Huh-7 cells. The experiment in a line: Cell viability, luminescence-based CellTiter-Glo assay, Huh-7 cells. Conditions: Homo sapiens, Huh-7, Huh-7 cells, cell viability; read-out: EC50 Huh-7. Here is the method:
The viability of Huh-7 cells was recorded using a luminescence-based CellTiter-Glo® assay. The screening concentration of the molecules were 10 μM with or without Fer-1 (10 μM) in DMEM media (>0.1% DMSO as control).
Ferroptosis is a unique form of cell death mechanism mediated by the accumulation of lipid peroxides in cells which is distinct from healthy cells' apoptosis, a programmed […] route. We aimed to exploit the induction of ferroptosis in cancer cells using covalent small molecules as a potential strategy for cancer therapeutic development. […] We used various amide bond formation chemistry to construct the library members and these molecules are well characterized by various spectroscopic and mass spectrometry techniques. Once confirmed, these thiol reactive library members were screened in a cancer cell viability assay in combination with ferrostatin-1 (Fer-1), a ferroptosis inhibitor as depicted in FIG. 11. […] We have screened a total of ˜50 electrophilic small molecules to prevent the proliferation of hepatocellular carcinoma (Huh-7 cells) in combination with and without Fer-1. From our initial screening, we identified haloacetamides of 2-aminoalkylbenzophenone as potential ferroptosis inducers as depicted in FIG. 11.
as §1
The viability of screened cancer cells was recorded using a luminescence-based CellTiter-Glo® assay for the ATP quantification. The screening concentration of IITK3002 ranged from 10 μM to 4.5 nM with an 8-point-3-fold dilution series in DMEM media (>0.1% DMSO as control). Each experiment was conducted in more than two biological replicates with three technical replicates. The error bar is a representation of standard deviation among the technical replicates. […]
a. Electrophilic Warhead Optimization: Once we identified 2-benzoylphenyl-a-haloacetamide as the lead scaffold, we have investigated the structure-activity-relationship analysis to precisely capture the effect of various chemical handles of the scaffold and use the knowledge to improve the overall potency and selectivity of this molecule to prevent cancer cell proliferation. First, we changed the haloacetamide electrophilic unit with various other electrophiles with a characteristic high, moderate, and weak reactivity with thiols when compared to chloroacetamide. Therefore, we opted vinylsulfonamide (highly reactivity), acrylamide (moderate reactivity), and phenoxyacetamides (weak reactivity warheads) for incorporation in the place of haloacetamide warhead of the top hit scaffold. Once synthesized, these molecules were evaluated to assess their antiproliferative potency against Huh-7 cells (Table 2). As expected, the introduction of weakly reactive electrophilic warheads, phenoxyactamides, completely lost the activity against Huh-7 cells. […] Perhaps, the secondary interactions of the electrophilic warhead with the target proteins might play additional roles. Therefore, we shifted our focus to optimize the rest of the core scaffold for further SAR analysis. b. Role of N-Substitutions: Next, we synthesized the NH-derivative of haloacetamides to capture the importance of N-alkylation on the activity of our hit molecule. […] Perhaps the hydrogen bonding induced planarity around the warhead influences the molecules' weakened potency. Conversely, the additional flexibility in the lead molecule (tertiary amide) might contribute to the strong antiproliferative activity of the hit molecule. […]

The subject of assay [3] is U2OS. Kind of assay: Cell viability, CellTiter-Glo assay, U2OS. The assay is classed as cell-based. Conditions: Homo sapiens. Here is the method: as §1, §2, §3
The test system of assay [4] is A549. Kind of assay: Cell viability, A549. Conditions: Homo sapiens. The assay is classed as cell-based.
Assay [5] deals with 22Rv1. The experiment in a line: Cell viability, CellTiter-Glo assay, 22Rv1. Conditions: Homo sapiens, 22Rv1, 22Rv1, cell viability. In kind it is cell-based. Here is the method: as §1, §2, §3

As a reminder, the EC50 is the concentration that produces a half-maximal response. For the compound `CN(C(=O)COc1ccc(C(C)(C)C)cc1)c1ccccc1C(=O)c1ccccc1` [IITK3008, N-(2-benzoylphenyl)-2-(4-(tert-butyl)phenoxy)-N-methylacetamide], the values for the 50% effective concentration (EC50) in assay [1] and in assay [2] were 12.8 µM and over 20 µM, respectively.

With `C=CC(=O)N(C)c1ccccc1C(=O)c1ccccc1` [IITK3010, N-(2-benzoylphenyl)-N-methylacrylamide], the concentration giving a half-maximal response (EC50) in assay [1], in assay [3], in assay [4] and in assay [5] was over 20 µM each time.

With `C=CCN(C(=O)COc1ccc(C(C)(C)C)cc1)c1ccccc1C(=O)c1ccccc1` [IITK3023, N-allyl-N-(2-benzoylphenyl)-2-(4-(tert-butyl)phenoxy)acetamide], the EC50 in assay [1] is over 20 µM; in assay [3], over 100 µM; in assay [4] it was 20 µM; in assay [5] it was over 20 µM.

For the compound `O=C(c1ccccc1)c1ccccc1N(Cc1ccccc1)C(=O)COc1ccccc1` [IITK3036, N-(2-benzoylphenyl)-N-benzyl-2-phenoxyacetamide], the concentration giving a half-maximal response (EC50) in assay [1], in assay [2], in assay [3], in assay [4] and in assay [5] was over 20 µM throughout.

`CN(C(=O)COc1ccc(Br)cc1)c1ccccc1C(=O)c1ccccc1` [IITK3009, N-(2-benzoylphenyl)-2-(4-bromophenoxy)-N-methylacetamide]: the EC50 in assay [1], in assay [2], in assay [3], in assay [4] and in assay [5] was over 20 µM throughout.

Take `C#CCOC(=O)Nc1ccc(N(C)C(=O)CBr)c(C(=O)c2ccccc2)c1` [IITK3053, prop-2-yn-1-yl (3-benzoyl-4-(2-bromo-N-methylacetamido)phenyl)carbamate]: the half-maximal effective concentration (EC50) in assay [2] worked out at 11.7 µM; in assay [3], 0.77 µM; in assay [4], 1.54 µM.

`C#CCN(C(=O)COc1ccc(F)cc1)c1ccccc1C(=O)c1ccccc1` [IITK3030, N-(2-benzoylphenyl)-2-(4-fluorophenoxy)-N-(prop-2-yn-1-yl)acetamide]: the EC50 in assay [1] is over 20 µM; in assay [2] it was over 100 µM; in assay [3], over 20 µM; in assay [4], over 20 µM; in assay [5], over 20 µM.

The compound `O=C(c1ccccc1)c1ccccc1N(Cc1ccccc1)C(=O)CCl` [IITK3034, N-(2-benzoylphenyl)-N-benzyl-2-chloroacetamide] returned a concentration for a half-maximal effect (EC50) in assay [5] of 3.85 µM.

`C=CS(=O)(=O)N(C)c1ccccc1C(=O)c1ccccc1` [IITK3011, N-(2-benzoylphenyl)-N-methylethenesulfonamide]: the EC50 in assay [1], in assay [3], in assay [4] and in assay [5] was over 20 µM throughout.

Turning to `O=C(CCl)Nc1ccccc1C(=O)c1ccccc1` [IITK3012, N-(2-benzoylphenyl)-2-chloroacetamide], the EC50 in assay [1], in assay [3], in assay [4] and in assay [5] was over 20 µM each time.

With `O=C(CBr)Nc1ccc([N+](=O)[O-])cc1C(=O)c1ccccc1` [IITK3051, N-(2-benzoyl-4-nitrophenyl)-2-bromoacetamide], the EC50 in assay [1], in assay [3], in assay [4] and in assay [5] was over 20 µM in each case.

Turning to `O=C(c1ccccc1)c1ccccc1N(Cc1ccccc1)C(=O)CBr` [IITK3035, N-(2-benzoylphenyl)-N-benzyl-2-bromoacetamide], the EC50 in assay [1] turned out to be 0.53 µM; in assay [3], 0.19 µM; in assay [4] it was 0.24 µM; in assay [5], 0.77 µM.

Take `C#CCOC(=O)Nc1ccc(N(C)C(=O)CCl)c(C(=O)c2ccccc2)c1` [IITK3052, prop-2-yn-1-yl (3-benzoyl-4-(2-chloro-N-methylacetamido)phenyl)carbamate]: the EC50 was 32.8 µM in assay [2], 2.92 µM in assay [3] and 4.18 µM in assay [4].

Consider `C=CCN(C(=O)COc1ccccc1)c1ccccc1C(=O)c1ccccc1` [IITK3020, N-allyl-N-(2-benzoylphenyl)-2-phenoxyacetamide], for which the half-maximal effective concentration (EC50) in assay [1], in assay [3], in assay [4] and in assay [5] was over 20 µM in each case.

Regarding `CC(C)(C)c1ccc(OCC(=O)N(Cc2ccccc2)c2ccccc2C(=O)c2ccccc2)cc1` [IITK3038, N-(2-benzoylphenyl)-N-benzyl-2-(4-(tert-butyl)phenoxy)acetamide], the 50% effective concentration (EC50) in assay [1] was over 20 µM; in assay [2] it was over 100 µM; in assay [3], over 20 µM; in assay [4], over 20 µM; in assay [5] it was over 20 µM.

In the case of `O=C(c1ccccc1)c1ccccc1N(Cc1ccccc1)C(=O)COc1ccc(F)cc1` [IITK3037, N-(2-benzoylphenyl)-N-benzyl-2-(4-fluorophenoxy)acetamide], the half-maximal effective concentration (EC50) in assay [1], in assay [2], in assay [3], in assay [4] and in assay [5] was over 20 µM in each case.

`C#CCN(C(=O)COc1ccc(Br)cc1)c1ccccc1C(=O)c1ccccc1` [IITK3033, N-(2-benzoylphenyl)-2-(4-bromophenoxy)-N-(prop-2-yn-1-yl)acetamide]: the concentration giving a half-maximal response (EC50) in assay [1], in assay [2], in assay [3], in assay [4] and in assay [5] was over 20 µM each time.

Regarding `CC(C)N(C(=O)CCl)c1ccccc1C(=O)c1ccccc1` [IITK3028, N-(2-benzoylphenyl)-2-chloro-N-isopropylacetamide], the EC50 in assay [1] was over 20 µM; in assay [2] it was 19.6 µM; in assay [3], over 20 µM; in assay [4], over 20 µM; in assay [5], over 20 µM.

Take `C#CCN(C(=O)COc1ccccc1)c1ccccc1C(=O)c1ccccc1` [IITK3029, N-(2-benzoylphenyl)-2-phenoxy-N-(prop-2-yn-1-yl)acetamide]: the EC50 in assay [1], in assay [2], in assay [3], in assay [4] and in assay [5] was over 20 µM in each case.

`CN(C(=O)COc1ccc(F)cc1)c1ccccc1C(=O)c1ccccc1` [IITK3006, N-(2-benzoylphenyl)-2-(4-fluorophenoxy)-N-methylacetamide]: the EC50 in assay [1], in assay [2], in assay [3], in assay [4] and in assay [5] was over 20 µM each time.

(Values after patent US20250099407A1, “2-AMINO BENZOPHENONE DERIVATIVES FOR TARGETED FERROPTOSIS INDUCTION IN CANCER THERAPY” (INDIAN INSTITUTE OF TECHNOLOGY KANPUR, priority 2023, published 2025).)
